Experimental data published in BindingDB's records for doi:10.1016/j.bmcl.2009.09.017 (Pfizer, 2009).

Assay: Antagonist activity at P2Y12 receptor in human platelet rich plasma assessed as inhibition of ADP-induced platelet aggregation by light transmission aggregometry

Going from CCCCCOC(=O)N1CCN(C(=O)[C@H](CCC(=O)O)NC(=O)c2cc(N3CCC(CN4CCCC4=O)CC3)nc(-c3ccccc3)n2)CC1 [(S)-5-oxo-4-(6-(4-((2-oxopyrrolidin-1-yl)methyl)piperidin-1-yl)-2-phenylpyrimidine-4-carboxamido)-5-(4-(pentyloxycarbonyl)piperazin-1-yl)pentanoic acid] to CCCCCOC(=O)N1CCN(C(=O)[C@H](CCC(=O)O)NC(=O)c2cc(N3CCC(CN4CCCC4)CC3)nc(-c3ccccc3)n2)CC1 [(S)-5-oxo-5-(4-(pentyloxycarbonyl)piperazin-1-yl)-4-(2-phenyl-6-(4-(pyrrolidin-1-ylmethyl)piperidin-1-yl)pyrimidine-4-carboxamido)pentanoic acid], the IC50 falls from 1600 nM to 560 nM (2.9-fold).

Compared with CCCCCOC(=O)N1CCN(C(=O)[C@H](CCC(=O)O)NC(=O)c2cc(SCC(F)(F)F)nc(-c3ccccc3)n2)CC1 [(S)-5-oxo-5-(4-(pentyloxycarbonyl)piperazin-1-yl)-4-(2-phenyl-6-(2,2,2-trifluoroethylthio)pyrimidine-4-carboxamido)pentanoic acid], CCCCCOC(=O)N1CCN(C(=O)[C@H](CCC(=O)O)NC(=O)c2cc(N3CCNCC3)nc(-c3ccccc3)n2)CC1 [(S)-5-oxo-5-(4-(pentyloxycarbonyl)piperazin-1-yl)-4-(2-phenyl-6-(piperazin-1-yl)pyrimidine-4-carboxamido)pentanoic acid] is lower in IC50: greater than 10000 nM for the first, 1300 nM for the second.

Compared with CCCCCOC(=O)N1CCN(C(=O)[C@H](CCC(=O)O)NC(=O)c2cc(N3CCC(CCN4CCCC4)CC3)nc(-c3ccccc3)n2)CC1 [(S)-5-oxo-5-(4-(pentyloxycarbonyl)piperazin-1-yl)-4-(2-phenyl-6-(4-(2-(pyrrolidin-1-yl)ethyl)piperidin-1-yl)pyrimidine-4-carboxamido)pentanoic acid], CCCCCOC(=O)N1CCN(C(=O)[C@H](CCC(=O)O)NC(=O)c2nc(-c3ccccc3)cc(N3CCC(CCN4CCCC4)CC3)n2)CC1 [(S)-5-oxo-5-(4-(pentyloxycarbonyl)piperazin-1-yl)-4-(4-phenyl-6-(4-(2-(pyrrolidin-1-yl)ethyl)piperidin-1-yl)pyrimidine-2-carboxamido)pentanoic acid] is 2.1-fold higher in IC50: 810 nM for the first, 1700 nM for the second. The first is the more potent here.

First: CCCCCOC(=O)N1CCN(C(=O)[C@H](CCC(=O)O)NC(=O)c2cc(N3CCC(N4CCCC4)CC3)nc(-c3ccccc3)n2)CC1 [(S)-5-oxo-5-(4-(pentyloxycarbonyl)piperazin-1-yl)-4-(2-phenyl-6-(4-(pyrrolidin-1-yl)piperidin-1-yl)pyrimidine-4-carboxamido)pentanoic acid]
Second: CCCCCOC(=O)N1CCN(C(=O)[C@H](CCC(=O)O)NC(=O)c2nc(-c3ccccc3)cc(N3CCC(N4CCCC4)CC3)n2)CC1 [(S)-5-oxo-5-(4-(pentyloxycarbonyl)piperazin-1-yl)-4-(4-phenyl-6-(4-(pyrrolidin-1-yl)piperidin-1-yl)pyrimidine-2-carboxamido)pentanoic acid]
The IC50 of the first is 4.1-fold lower: 510 nM for the first, 2100 nM for the second.

Going from CCCCCOC(=O)N1CCN(C(=O)[C@H](CCC(=O)O)NC(=O)c2cc(N3CCC(C(=O)N4CCCC4)CC3)nc(-c3ccccc3)n2)CC1 [(S)-5-oxo-5-(4-(pentyloxycarbonyl)piperazin-1-yl)-4-(2-phenyl-6-(4-(pyrrolidine-1-carbonyl)piperidin-1-yl)pyrimidine-4-carboxamido)pentanoic acid] to CCCCCOC(=O)N1CCN(C(=O)[C@H](CCC(=O)O)NC(=O)c2cc(OCC3CCNCC3)nc(-c3ccccc3)n2)CC1 [(S)-5-oxo-5-(4-(pentyloxycarbonyl)piperazin-1-yl)-4-(2-phenyl-6-(piperidin-4-ylmethoxy)pyrimidine-4-carboxamido)pentanoic acid], the IC50 rises from 270 nM to 1700 nM (6.3-fold). The first is the more potent here.

Compared with CCCCCOC(=O)N1CCN(C(=O)[C@H](CCC(=O)O)NC(=O)c2nc(-c3ccccc3)cc(N3CCNCC3)n2)CC1 [(S)-5-oxo-5-(4-(pentyloxycarbonyl)piperazin-1-yl)-4-(4-phenyl-6-(piperazin-1-yl)pyrimidine-2-carboxamido)pentanoic acid], CCCCCOC(=O)N1CCN(C(=O)[C@H](CCC(=O)O)NC(=O)c2nc(OCC3CCNCC3)cc(-c3ccccc3)n2)CC1 [(S)-5-oxo-5-(4-(pentyloxycarbonyl)piperazin-1-yl)-4-(4-phenyl-6-(piperidin-4-ylmethoxy)pyrimidine-2-carboxamido)pentanoic acid] is 1.8-fold higher in IC50: 5200 nM for the first, 9400 nM for the second. The first is the more potent here.
